# Reference: ChEMBL document CHEMBL5532687, “A colorimetric assay adapted to fragment screening revealing aurones and chalcones as new arginase inhibitors” (RSC Med Chem, 2024)
# Target: T1, Arginase-1 (Bos taurus, UniProt Q2KJ64)
# T1 sequence (Q2KJ64 whole entry): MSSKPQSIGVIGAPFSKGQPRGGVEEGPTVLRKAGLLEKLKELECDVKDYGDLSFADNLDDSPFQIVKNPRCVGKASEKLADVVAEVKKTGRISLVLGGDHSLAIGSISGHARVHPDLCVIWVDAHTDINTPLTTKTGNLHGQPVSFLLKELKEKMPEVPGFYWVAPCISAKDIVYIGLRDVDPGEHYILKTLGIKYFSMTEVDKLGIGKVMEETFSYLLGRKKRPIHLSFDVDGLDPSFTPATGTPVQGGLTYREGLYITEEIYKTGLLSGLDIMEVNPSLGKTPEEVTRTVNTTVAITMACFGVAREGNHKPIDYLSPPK
# Assay: Inhibition of bovine liver arginase 1 using L-arginine as substrate incubated for 60 mins by OPA-p colorimetric assay
row,SMILES,IC50
1,O=C1C(=Cc2ccc(O)c(O)c2)C(=O)c2ccccc21,537 µM
2,O=C(/C=C/c1ccc(O)c(O)c1)c1ccccc1,351 µM
3,Oc1ccc(Cl)cc1C1CC(c2ccco2)=NN1 (configuration not stated),720 µM
4,O=C(/C=C/c1cc(O)cc(O)c1)c1ccc(O)c(O)c1,364 µM
5,O=C(/C=C/c1ccccc1)c1ccc(O)c(O)c1,384 µM
6,O=C(/C=C/c1ccc(O)c(O)c1)c1ccc(O)cc1O [BUTEIN],1550 µM
7,O=C(/C=C/c1ccc(O)cc1)c1ccc(O)c(O)c1,302 µM
8,Oc1cccc(O)c1O [PYROGALLOL],375 µM
9,O=C(/C=C/c1cccc(O)c1)c1ccc(O)c(O)c1,135 µM
10,Oc1cc(O)cc(/C=C/c2ccc(O)c(O)c2)c1 [PICEATANNOL],71.6 µM
11,O=C(/C=C/c1ccc(O)c(O)c1)c1cccc(O)c1,102 µM
12,O=C(/C=C/c1ccc(O)c(O)c1)O[C@@H]1C[C@](O)(C(=O)O)C[C@@H](O)[C@H]1O [CHLOROGENIC ACID],271 µM
13,N[C@@H](CSCCB(O)O)C(=O)O,23 µM
14,O=C(/C=C/c1ccc(O)c(O)c1)c1cc(O)cc(O)c1,136 µM
15,O=C(/C=C/c1ccc(O)c(O)c1)c1ccc(O)cc1,354 µM

# Now from value to molecule:
row,IC50,SMILES
1,507 µM,O=C1/C(=C/c2ccc(F)cc2)Oc2c1ccc(O)c2O
2,254 µM,O=C1/C(=C/c2ccc(O)c(O)c2)Oc2c1ccc(O)c2O
3,1090 µM,O=C1/C(=C/c2c(F)c(F)c(F)c(F)c2F)Oc2c1ccc(O)c2O
4,437 µM,O=C1/C(=C/c2ccc(O)c(O)c2)Oc2cc(O)ccc21 [SULFURETIN]
5,98 µM,"O=C(/C=C/c1ccc(O)c(O)c1)c1c(O)cc(O)cc1O [3,4,2',4',6'-PENTAHYDROXYCHALCONE]"
6,1930 µM,O=C1/C(=C/c2ccc(O)cc2)Oc2c1ccc(O)c2O
7,91.1 µM,O=C(/C=C/c1ccc(O)c(O)c1)c1ccc(O)c(O)c1
8,764 µM,O=C(/C=C/c1cc(O)c(O)c(O)c1)c1ccc(O)c(O)c1
9,532 µM,O=C1/C(=C/c2ccc(O)c(O)c2O)Oc2c1ccc(O)c2O
10,312 µM,O=C1/C(=C/c2ccc(F)c(F)c2)Oc2c1ccc(O)c2O
11,120 µM,O=C1/C(=C/c2cccc(O)c2)Oc2c1ccc(O)c2O
12,287 µM,O=C1/C(=C/c2cc(O)c(O)c(O)c2)Oc2c1ccc(O)c2O
